From patent US8518896B2, “Treatment of cancers of the blood using selected glycomimetic compounds” (Glycomimetics, Inc., priority 2008, dated 2013)

Tested on: neutrophils
Conditions: mice; 5-FU 150 mg/kg i.p. or cyclophosphamide 300 mg/kg i.p.; lasts for at least one week
Experimental: At varying time points after treatment, blood samples are taken from the mice and analyzed for different cell types including neutrophils.
As diagrammed in FIG. 10, mice are treated with Compound #2 for 14 days by intraperitoneal injections (50 mg/kg) twice a day. On day 12 within this treatment period, a cohort of mice receives an injection of a chemotherapeutic drug; either 5-fluorouracil (150 mg/kg i.p.) or cyclophosphamide (300 mg/kg i.p.). On the third day after treatment with Compound #2, blood is obtained by cardiac puncture from one cohort of mice to determine a complete blood count (CBC). Other cohorts of mice are bled and analyzed (CBC) on days 5, 7, 9 and 15 after Compound #2 treatment.

## O=P1(N(CCCl)CCCl)NCCCO1 (stereo not shown) [cyclophosphamide]
  neutropenia caused by the chemotherapeutic drug: severe neutropenia
